Reference: US11814363B2, “Morphic forms of danicopan” (Achillion Pharmaceuticals, Inc., priority 2018, dated 2023)
≈ marks a conversion by molar mass, not a printed value. Read-outs that look alike come from different tables or passages of the source.

Assays:
Format in all cases: physicochemical
[1] = Relative stability of hydrated Compound 1 forms vs water activity, PXRD; conditions: for water activity value (aw) at which the form is the stable hydrate: 25° C.
Experimental: The relative stability of hydrated Compound 1 Form II, Form IV, and Form V were studied at 25° C. and the results are shown in Table 6. […] Form V was determined to be the stable hydrate at aw=0.75, with […] the stable hydrate at aw=0.90. The water activity of the solvent mixture used for the crystallization process must be below 0.55 in order to obtain Form II consistently.

[2] = Physical stability of crystal forms on heating, drying or storage, PXRD
[3] = Dynamic vapor sorption (DVS) analysis
[4] = Visual solubility estimate of amorphous Compound 1 in solvents
Experimental: The solubility of amorphous Compound 1 was estimated in 14 solvents to facilitate the solvent selection for the crystallization study. The solubility of Compound 1 was visually estimated at room temperature (RT; ˜23° C.) by dosing small aliquots of solvent into a fixed amount of solid (˜10 mg) until the dissolution point or a maximum volume (1.7 mL) was reached.

[5] = as above; conditions: 40 °C, thermodynamic from solid
[6] = 102097-CR6, 2-propanol: 20 vol % Water, water activity 0.9
[7] = CR5, Acetonitrile: 10 vol % Water, water activity 0.75

CC(=O)c1nn(CC(=O)N2C[C@H](F)C[C@H]2C(=O)Nc2cccc(Br)n2)c2ccc(-c3cnc(C)nc3)cc12 [Compound 1, danicopan]
PXRD Results 4 days/RT [1, 6]: Form III | PXRD Results 8 days/RT [1, 6]: Form IH | PXRD Results 4 days/RT ([1]; CR1, 2-propanol, water activity 0): Form II | PXRD Results 4 days/RT ([1]; CR2, EtOAc, water activity 0): Form II | PXRD Results 4 days/RT ([1]; CR3, Methanol: 10 vol % Water, water activity 0.33): Form II | PXRD Results 4 days/RT ([1]; CR4, 2-propanol: 5 vol % Water, water activity 0.55): Form II | PXRD Results 4 days/RT [1, 7]: Form V | PXRD Results 8 days/RT [1, 7]: Form V

CC(=O)c1nn(CC(=O)N2C[C@H](F)C[C@H]2C(=O)Nc2cccc(Br)n2)c2ccc(-c3cnc(C)nc3)cc12 [Form IV]
physically stable by PXRD, time ([2]; sealed vial): at least 10 days

CC(=O)c1nn(CC(=O)N2C[C@H](F)C[C@H]2C(=O)Nc2cccc(Br)n2)c2ccc(-c3cnc(C)nc3)cc12 [Form V]
water activity value (aw) at which the form is the stable hydrate [1]: 0.75

CC(=O)c1nn(CC(=O)N2C[C@H](F)C[C@H]2C(=O)Nc2cccc(Br)n2)c2ccc(-c3cnc(C)nc3)cc12 [Form III]
water activity value (aw) at which the form is the stable hydrate [1]: 0.90 | crystal form after drying ([2]; 70° C. under vacuum for 1 hour): did not change the crystal-form

CC(=O)c1nn(CC(=O)N2C[C@H](F)C[C@H]2C(=O)Nc2cccc(Br)n2)c2ccc(-c3cnc(C)nc3)cc12 [Form VI]
PXRD pattern after sitting overnight ([2]; overnight on a PXRD holder, ambient): closely resembles Form V

CC(=O)c1nn(CC(=O)N2C[C@H](F)C[C@H]2C(=O)Nc2cccc(Br)n2)c2ccc(-c3cnc(C)nc3)cc12 [Form II]
water content of the hydrate by DVS ([3]; DVS isotherm): 2.7-4.0% | critical RH step (DVS) ([3]; reversible hydration): 30 % RH | water activity value (aw) at which the form is the stable hydrate [1]: ≤ 0.55 | crystal form by PXRD after heating past the dehydration endotherm ([2]; heated past dehydration endotherm, returned to room temperature): does not change the crystal-form

CC(=O)c1nn(CC(=O)N2C[C@H](F)C[C@H]2C(=O)Nc2cccc(Br)n2)c2ccc(-c3cnc(C)nc3)cc12 [Amorphous Compound 1]
solubility ([4]; 1,4-dioxane, 23 °C, organic solvent or mixture, thermodynamic from solid, 1,4-Dioxane, RT (~23° C.), visually estimated, read-out: Solubility at RT): 98 to 392 mg/mL (≈ 169 to 675 mM) | solubility ([4]; 2-propanol, 23 °C, organic solvent or mixture, thermodynamic from solid, 2-Propanol, RT (~23° C.), visually estimated, read-out: Solubility at RT): < 5.71 mg/mL | solubility ([4]; 2-propanol, 40 °C, organic solvent or mixture, thermodynamic from solid, 2-Propanol, 40° C., read-out: Solubility at 40° C.): > 5.71 mg/mL | Solubility at RT ([4]; Dimethyl Sulfoxide, RT (~23° C.), visually estimated): >452 mg/mL | Solubility at RT ([4]; Heptane, RT (~23° C.), visually estimated): <5.59 mg/mL | Solubility at RT ([4]; Water, RT (~23° C.), visually estimated): <5.59 mg/mL | solubility ([4]; acetone, 23 °C, organic solvent or mixture, thermodynamic from solid, Acetone, RT (~23° C.), visually estimated, read-out: Solubility at RT): 121 to 484 mg/mL (≈ 208 to 834 mM) | solubility ([4]; acetonitrile, 23 °C, organic solvent or mixture, thermodynamic from solid, Acetonitrile, RT (~23° C.), visually estimated, read-out: Solubility at RT): 98 to 392 mg/mL (≈ 169 to 675 mM) | solubility ([4]; chloroform, 23 °C, organic solvent or mixture, thermodynamic from solid, Chloroform, RT (~23° C.), visually estimated, read-out: Solubility at RT): 92 to 368 mg/mL (≈ 159 to 634 mM) | solubility ([4]; dichloromethane, 23 °C, organic solvent or mixture, thermodynamic from solid, Dichloromethane, RT (~23° C.), visually estimated, read-out: Solubility at RT): 99 to 396 mg/mL (≈ 171 to 682 mM) | solubility ([4]; dimethyl sulfoxide, 23 °C, organic solvent or mixture, thermodynamic from solid, Dimethyl Sulfoxide, RT (~23° C.), visually estimated, read-out: Solubility at RT): > 452 mg/mL | solubility ([4]; ethyl acetate, 23 °C, organic solvent or mixture, thermodynamic from solid, Ethyl Acetate, RT (~23° C.), visually estimated, read-out: Solubility at RT): 91 to 364 mg/mL (≈ 157 to 627 mM) | solubility ([4]; heptane, 23 °C, organic solvent or mixture, thermodynamic from solid, Heptane, RT (~23° C.), visually estimated, read-out: Solubility at RT): < 6 mg/mL | solubility ([4]; methanol, 23 °C, organic solvent or mixture, thermodynamic from solid, Methanol, RT (~23° C.), visually estimated, read-out: Solubility at RT): 48 to 96 mg/mL (≈ 82.7 to 165 mM) | Solubility at RT ([4]; t-Butyl Methyl Ether (MTBE), RT (~23° C.), visually estimated): <5.71 mg/mL | solubility ([4]; t-butyl methyl ether (MTBE), 23 °C, organic solvent or mixture, thermodynamic from solid, t-Butyl Methyl Ether (MTBE), RT (~23° C.), visually estimated, read-out: Solubility at RT): < 6 mg/mL | solubility ([4]; tetrahydrofuran, 23 °C, organic solvent or mixture, thermodynamic from solid, Tetrahydrofuran, RT (~23° C.), visually estimated, read-out: Solubility at RT): 92 to 368 mg/mL (≈ 159 to 634 mM) | solubility ([4]; toluene, 23 °C, organic solvent or mixture, thermodynamic from solid, Toluene, RT (~23° C.), visually estimated, read-out: Solubility at RT): < 5.35 mg/mL | solubility ([4]; toluene, 40 °C, organic solvent or mixture, thermodynamic from solid, Toluene, 40° C., read-out: Solubility at 40° C.): > 5.35 mg/mL | solubility ([4]; water, 23 °C, water, thermodynamic from solid, Water, RT (~23° C.), visually estimated, read-out: Solubility at RT): < 6 mg/mL | solid form after the DVS experiment by PXRD ([3]; after DVS 0-90% RH): remained amorphous | water uptake (DVS) ([3]; from 0-90% RH): 4.0% | solubility ([5]; heptane, organic solvent or mixture): < 5.59 mg/mL | solubility ([5]; t-butyl methyl ether, organic solvent or mixture): < 5.71 mg/mL | solubility ([5]; water): < 5.59 mg/mL
